Here are results for one compound from patent US20220040255A1, “CHEMOTHERAPEUTIC REMODELING OF THE GUT MICROBIOME” (THE SCRIPPS RESEARCH INSTITUTE, priority 2018, published 2022).

The subject of experiment [1] is Foxp3+ regulatory T cell (Treg) population. Kind of experiment: quantification of regulatory T cells in lamina propria. The experiment is classed as in vivo, mice. From the text: Quantification of regulatory T cells. Lamina propria (LP) immune cells from the small intestine were isolated using lamina propria dissociation kit (Miltenyi Biotec) following the manufacturer's instruction. All antibodies and flow cytometry reagents were obtained from Thermo Fisher. We used FITC anti-CD4 (RM4-5), PE anti-Foxp3 (FJK-16s), PE-Cyanine 7 anti-GATA3 (TWAJ), APC anti ROR gamma t (AFKJS-9), APC-efluor780 anti-Helios (22F6) and e-fluor 450 anti-CD3 (17A2) antibodies. To block non-antigen specific binding of immunoglobulins and discriminate live from dead cells, LP cell suspensions were incubated with mouse BD Fc block (BD Biosciences) and e-fluor 506 fixable viability dye (Thermo Fisher) for 30 minutes on ice. For surface staining, the cells were incubated with antibodies for 25 min, washed and fixed in fixation/permeabilization solution (Thermo Fisher). After being washed with transcription factor wash buffer (Thermo Fisher), cells were stained intracellularly for 45 min at room temperature, washed, and resuspended in PBS. Samples were read in a FACs canto analyzer (BD Biosciences) and analyzed with FACs Diva software v 8.0 (BD Biosciences). Total LP cell numbers were quantified to calculate regulatory T cell ratios. Flow Jo v10 software was used for dot plots generation and final analysis.

Experiment [2] has as its system gut microbiota transcriptome. The experiment can be described thus: bacterial RNA-seq of feces (microbiota transcriptome). The class given is in vivo, LDLr−/− mice. The method, then: Bacterial RNA-seq sample preparation and sequencing. Total bacterial RNA from feces samples was isolated with ZR Soil/Fecal RNA MicroPrep (Zymo research) following the manufacturer's instructions. Briefly, the sample was suspended in RNA lysis buffer and lysed by the mixer (Retsch). The supernatant was transferred to a RNA-binding column and washed several times with RNA wash buffer. In-column DNaseI digestion at 25° C. for 15 min was performed to eliminate DNA contamination in the sample. The presence of genomic DNA contamination was assessed by PCR with universal 16S rRNA gene primers. Before RNA-seq library preparation, rRNA was removed from 2 μg of total bacterial RNA with Ribo-Zero Bacteria kit (Illumina). 100 ng of purified RNA was used for RNA-seq library preparation as described previously^56. The cDNA was synthesized by reverse transcription with SuperScript III (Life technologies) and second-strand synthesis (New England Biolabs). The sequencing library was generated from purified cDNA with Nextera XT DNA library preparation kit (Illumina) and amplified by PCR. Cycling conditions were 72° C. for 3 min, 95° C. for 30 s, followed by 16 cycles of 95° C. for 10 s, 55° C. for 30 s, and 72° C. for 30 s. A condition of 72° C. for 5 min was used for the final elongation step. Libraries with different indexes were pooled and single-end sequencing (75 bp) was performed on an Illumina NextSeq at the Scripps Research Institute next generation sequencing core.
Functional analysis of bacterial RNA-seq data. We used BWA (version 0.7.12) read alignment program and a custom-built bacterial reference database, which contains 4,700 bacterial genomes from NCBI NR sequence database, to map RNA-seq reads. The reads aligned to individual bacterial genes were counted using HTSeq count (version 0.6.0) and the counts were further normalized based on size factors estimated using the median of the ratios of observed counts method as described previously (Anders et al., Genome Biol. 11, R106, 2010). The proteins predicted by RNA-seq read alignment were annotated with DIAMOND (version 0.8.26) using the NCBI nonredundant (NCBI-nr) database and the default setting (BLASTX e value <10^−3, bit score >50). For query genes with multiple matches, the annotated reference gene with the lowest e value was chosen. The functional analysis was performed by MEGAN (version 5.11.3) and KEGG analyzer was used to determine read counts in different metabolic pathways from each group. The aggregate expression level changes for sequences within a given function were normalized before the comparison between each group.

The next experiment has as its system total bile acid. Kind of experiment: bulk (total) bile acid quantification. The class given is in vivo, LDLr−/− mice. The settings on record: 2-wk treatment. The protocol: Bulk bile acid quantification. Total bile acids were measured enzymatically using a total bile acid assay kit (Cell Biolabs) following manufacturer's instruction. Feces were obtained between 0900-1100 am from non-fasted animals after a 2-wk treatment period. The extraction of bile acid from feces was performed as described in Yu et al., J. Biol. Chem. 275, 15482-15489, 2000. In brief, the feces from individual mice were collected, weighed, and agitated in 75% ethanol in an ultrasonic bath at 50° C. for 2 h. After centrifugation at 3,500 g for 10 min, the supernatant was transferred to a new tube and diluted with 25% PBS. The total bile acid level was then determined enzymatically using the kit. For plasma samples, the plasma was diluted 1:10 with 25% PBS prior to enzymatic bile acid measurement using the kit.

Setting [3] is: wild-type and LDLr−/− mice fed a WD.

Where a SMILES comes first, the peptide text is derived from it. [ ]: non-standard residue; d: D form.

In the case of `CC(C)C[C@@H]1NC(=O)[C@@H](Cc2c[nH]c3ccccc23)NC(=O)[C@H](CCCNC(=N)N)NC(=O)[C@@H](CCC(=O)O)NC(=O)[C@H](CCC(N)=O)NC(=O)[C@@H](CCC(=O)O)NC(=O)[C@H](CCCNC(=N)N)NC(=O)[C@@H](Cc2c[nH]c3ccccc23)NC1=O` [c[wLwReQeR]] (cyclo([dW]L[dW]R[dE]Q[dE]R)), the “composition of Foxp3+ regulatory T cell (Treg) population” value in experiment [1] was “significantly altered”. Moreover, in experiment [1] (setting [3]), the “Helios+/RORγt+ Treg ratio” value is on record as “increased” and the “Helios+/Th17 ratio” value is reported as “increased”. In experiment [2] (feces, 2-week treatment), the “overall gene expression from Bacteroidetes” value was “increased” and the “overall gene expression from Firmicutes” value is given as “reduced”. In experiment [2] (microbiota transcriptome), the “acetoacetate-CoA transferase levels compared to vehicle” value is listed as “higher” and the “butyryl-CoA dehydrogenase levels compared to vehicle” value is “lower”. In addition, the “total bile acid in the feces, peptide-treated vs. control WD-fed mice” value with total bile acid (feces) is listed as “two-fold higher”. In the experiment on total bile acid (plasma), the “total bile acid in the plasma, peptide-treated vs. control WD-fed mice” value was “three-fold lower”.
